Laboratory results from patent US20090170846A1, “INHIBITORS OF THE HIV INTEGRASE ENZYME” (Pfizer Inc, priority 2005, published 2009).

Tested on: RF strain of HIV-1 in CEM-SS cells
Assay: HIV-1 cell protection assay (XTT dye reduction)
Format: cell-based
Conditions: Human immunodeficiency virus 1, 144 h; HIV-1 RF, CEM-SS cells, XTT, six days; read-out: EC50
Protocol: HIV-1 Cell Protection Assay
The antiviral activities of potential modulator compounds (test compounds) were determined in HIV-1 cell protection assays using the RF strain of HIV-1, CEM-SS cells, and the XTT dye reduction method (Weislow, O, S. et al., J. Natl. Cancer Inst 81: 577-586 (1989)). Subject cells were infected with HIV-1 RF virus at an moi of to affect about a 90% kill (for example, an moi in the range of from about 0.025 to about 0.819) or mock infected with medium only and added at 2×10^4 cells per well, with the addition of approximately 200 μL of medium, into 96 well plates containing half-log dilutions of test compounds. Six days later, 50 μl of XTT solution (1 mg/ml XTT tetrazolium and 20 nM phenazine methosulfate) were added to the wells and the plates were reincubated for four hours. Viability, as determined by the amount of XTT formazan produced, was quantified spectrophotometrically by absorbance at 450 nm.
Data from CPE assays were expressed as the percent of formazan produced in compound-treated cells compared to formazan produced in wells of uninfected, compound-free cells. The fifty percent effective concentration (EC50) was calculated as the concentration of compound that affected an increase in the percentage of formazan production in infected, compound-treated cells to 50% of that produced by uninfected, compound-free cells. The 50% cytotoxicity concentration (CC50) was calculated as the concentration of compound that decreased the percentage of formazan produced in uninfected, compound-treated cells to 50% of that produced in uninfected, compound-free cells. The therapeutic index was calculated by dividing the cytotoxicity (CC50) by the antiviral activity (EC50).

| SMILES | EC50 [µM] |
| --- | --- |
| COc1ncccc1NS(=O)(=O)c1cn(Cc2ccc(F)cc2)c2cnc(C(=O)N(C)O)cc12 [Example 53, 1-(4-fluorobenzyl)-N-hydroxy-3-{((2-methoxypyridin-3-yl)amino]sulfonyl}-N-methyl-1H-pyrrolo[2,3-c]pyridine-5-carboxamide] | 0.14 |
| CONC(=O)c1cc2c(S(=O)(=O)Nc3cccnc3OC)cn(Cc3ccc(F)cc3)c2cn1 [Example 52, 1-(4-fluorobenzyl)-N-methoxy-3-{[(2-methoxypyridin-3-yl)amino]sulfonyl}-1H-pyrrolo[2,3-c]pyridine-5-carboxamide] | 0.052 |
| CCN(CC)S(=O)(=O)c1cn(Cc2ccc(F)cc2)c2cnc(C(=O)NOC)cc12 [Example 49, 3-[(diethylamino)sulfonyl]-1-(4-fluorobenzyl)-N-methoxy-1H-pyrrolo[2,3-c]pyridine-5-carboxamide] | 0.017 |
| CN(O)C(=O)c1cc2c(S(=O)(=O)NCCCO)cn(Cc3ccc(F)cc3)c2cn1 [Example 50, 1-(4-fluorobenzyl)-N-hydroxy-3-{[(3-hydroxypropyl)amino]sulfonyl}-N-methyl-1H-pyrrolo[2,3-c]pyridine-5-carboxamide] | 0.46 |
| CC(=O)Nc1cn(Cc2ccc(F)cc2)c2cnc(C(=O)N(C)O)cc12 [Example 2, 3-(acetylamino)-1-(4-fluorobenzyl)-N-hydroxy-N-methyl-1H-pyrrolo[2,3-c]pyridine-5-carboxamide] | 0.02 |
| CONC(=O)c1cc2c(S(=O)(=O)N(C)CC3COCCO3)cn(Cc3ccc(F)cc3)c2cn1 (stereo not shown) [Example 54, 3-{[(1,4-dioxan-2-ylmethyl)(methyl)amino]sulfonyl}-1-(4-fluorobenzyl)-N-methoxy-1H-pyrrolo[2,3-c]pyridine-5-carboxamide] | 0.048 |
| CONC(=O)c1cc2c(S(=O)(=O)NCCCO)cn(Cc3ccc(F)cc3)c2cn1 [Example 51, 1-(4-fluorobenzyl)-3-{[(3-hydroxypropyl)amino]sulfonyl}-N-methoxy-1H-pyrrolo[2,3-c]pyridine-5-carboxamide] | 0.11 |
| CN(O)C(=O)c1cc2c(S(=O)(=O)N(C)CC3COCCO3)cn(Cc3ccc(F)cc3)c2cn1 (stereo not shown) [Example 56, 3-{[(1,4-dioxan-2-ylmethyl)(methyl)amino]sulfonyl}-1-(4-fluorobenzyl)-N-hydroxy-N-methyl-1H-pyrrolo[2,3-c]pyridine-5-carboxamide] | 0.4 |
| CN(O)C(=O)c1cc2c(S(=O)(=O)N3CCOCC3)cn(Cc3ccc(F)cc3)c2cn1 [Example 57, 1-(4-fluorobenzyl)-N-hydroxy-N-methyl-3-(morpholin-4-ylsulfonyl)-1H-pyrrolo[2,3-c]pyridine-5-carboxamide] | 0.48 |
| CONC(=O)c1cc2c(S(=O)(=O)N3CCOCC3)cn(Cc3ccc(F)cc3)c2cn1 [Example 55, 1-(4-fluorobenzyl)-N-methoxy-3-(morpholin-4-ylsulfonyl)-1H-pyrrolo[2,3-c]pyridine-5-carboxamide] | 0.025 |
